Source: ChEMBL document CHEMBL1156366, “Sequoiatones C-f, constituents of the redwood endophyte Aspergillus parasiticus” (J Nat Prod, 2001)

Test: Toxicity against brine shrimp
Type: organism-based
Conditions: artemia, in vivo; read-out: LD50 (the source's name)

Row | SMILES | LC50 [µM]
1 | CCCCCC[C@H](C)C(=O)/C=C1\C(C(=O)OC)=C2C=COC(C)=C2[C@]1(C)O [SEQUOIATONE C] | 260
2 | COC(=O)C1=C2C=C(C)OC=C2[C@](C)(O)/C1=C/C(=O)[C@@H](C)CCCCCCO [SEQUOIATONE D] | 1300
3 | COC(=O)C1=C2C=COC(C)=C2[C@](C)(O)/C1=C/C(=O)[C@@H](C)CCCCCCO [SEQUOIATONE E] | 640
4 | CCCCCC[C@H](C)C(=O)/C=C1\C(C(=O)OC)=C2C=C(C)OC=C2[C@]1(C)O [SEQUOIATONE F] | 260
